{"source": "BindingDB's records for doi:10.1021/jm00356a028", "about": "(1983)"}
{"assay": "Inhibition of HSV-1 DNA polymerase in HSV-1 C42 plaque reduction assay", "units": {"IC50": "µM"}}
{"smiles": "O=C(O)P(=O)(O)O", "IC50": 74}
{"smiles": "COP(=O)(OC)C(=O)Oc1ccc(Cl)c(Cl)c1", "note": "[3,4-dichlorophenyl dimethoxyphosphinecarboxylate oxide]", "IC50": "> 500"}
{"smiles": "CCOC(=O)c1ccc(OC(=O)P(=O)(OCC)OCC)cc1", "note": "[4-(ethoxycarbonyl)phenyl diethoxyphosphinecarboxylate oxide]", "IC50": "> 500"}
{"smiles": "CCOC(=O)c1ccc(OC(=O)P(=O)(OC)OC)cc1", "note": "[4-(ethoxycarbonyl)phenyl dimethoxyphosphinecarboxylate oxide]", "IC50": "> 500"}
{"smiles": "CCOP(=O)(OCC)C(=O)Oc1ccc(Cl)cc1", "note": "[4-chlorophenyl diethoxyphosphinecarboxylate oxide]", "IC50": "> 500"}
{"smiles": "CCOP(=O)(OCC)C(=O)Oc1ccc(OC)cc1", "note": "[4-methoxyphenyl diethoxyphosphinecarboxylate oxide]", "IC50": "> 500"}
{"smiles": "COP(=O)(OC)C(=O)Oc1ccc(C)cc1", "note": "[4-methylphenyl dimethoxyphosphinecarboxylate oxide]", "IC50": "> 500"}
{"smiles": "CC(C)OP(=O)(OC(C)C)C(=O)Oc1ccc([N+](=O)[O-])cc1", "note": "[4-nitrophenyl diisopropoxyphosphinecarboxylate oxide]", "IC50": "> 500"}
{"smiles": "COP(=O)(OC)C(=O)Oc1ccc([N+](=O)[O-])cc1", "note": "[4-nitrophenyl dimethoxyphosphinecarboxylate oxide]", "IC50": "> 500"}
{"smiles": "COP(=O)(OC)C(=O)OCc1ccccc1", "note": "[benzyl dimethoxyphosphinecarboxylate oxide]", "IC50": "> 500"}
{"smiles": "CCCCOC(=O)P(=O)(OC)OC", "note": "[butyl dimethoxyphosphinecarboxylate oxide]", "IC50": "> 500"}
{"smiles": "COP(=O)(OC)C(=O)OC1CCCCC1", "note": "[cyclohexyl dimethoxyphosphinecarboxylate oxide]", "IC50": "> 500"}
{"smiles": "COP(=O)(OC)C(=O)OCC1CCCC1", "note": "[cyclopentylmethyl dimethoxyphosphinecarboxylate oxide]", "IC50": "> 500"}
{"smiles": "O=C(O)P(=O)(O)OC12CC3CC(CC(C3)C1)C2", "note": "[disodium (1-adamantyloxy)(oxido)phosphinecarboxylate oxide]", "IC50": "> 500"}
{"smiles": "O=C(O)P(=O)(O)Oc1ccc2c(c1)CCC2", "note": "[disodium (2,3-dihydro-1H-inden-5-yloxy)(oxido)phosphinecarboxylate oxide]", "IC50": 73}
{"smiles": "Cc1cccc(C)c1OP(=O)(O)C(=O)O", "note": "[disodium (2,6-dimethylphenoxy)(oxido)phosphinecarboxylate oxide]", "IC50": "> 500"}
{"smiles": "O=C(Oc1ccc(Cl)cc1)P(=O)(O)O", "note": "[disodium (4-chlorophenoxy)carbonylphosphonate]", "IC50": 250}
{"smiles": "COc1ccc(OP(=O)(O)C(=O)O)cc1", "note": "[disodium (4-methoxyphenoxy)(oxido)phosphinecarboxylate oxide]", "IC50": 90}
{"smiles": "COc1ccc(OC(=O)P(=O)(O)O)cc1", "note": "[disodium (4-methoxyphenoxy)carbonylphosphonate]", "IC50": "> 500"}
{"smiles": "Cc1ccc(OP(=O)(O)C(=O)O)cc1", "note": "[disodium (4-methylphenoxy)(oxido)phosphinecarboxylate oxide]", "IC50": 87}
{"smiles": "Cc1ccc(OC(=O)P(=O)(O)O)cc1", "note": "[disodium (4-methylphenoxy)carbonylphosphonate]", "IC50": "> 500"}
{"smiles": "O=C(OCc1ccccc1)P(=O)(O)O", "note": "[disodium (benzyloxy)carbonylphosphonate]", "IC50": "> 500"}
{"smiles": "O=C(OC1CCCCC1)P(=O)(O)O", "note": "[disodium (cyclohexyloxy)carbonylphosphonate]", "IC50": "> 500"}
{"smiles": "O=C(OCC1CCCC1)P(=O)(O)O", "note": "[disodium (cyclopentylmethoxy)carbonylphosphonate]", "IC50": "> 500"}
{"smiles": "CCOC(=O)c1ccc(OC(=O)P(=O)(O)O)cc1", "note": "[disodium [4-(ethoxycarbonyl)phenoxy]carbonylphosphonate]", "IC50": "> 500"}
{"smiles": "CCCCOC(=O)P(=O)(O)O", "note": "[disodium butoxycarbonylphosphonate]", "IC50": "> 500"}
{"smiles": "CCOP(=O)(O)C(=O)O", "note": "[disodium ethoxy(oxido)phosphinecarboxylate oxide]", "IC50": "> 500"}
{"smiles": "CCOC(=O)P(=O)(O)O", "note": "[disodium ethoxycarbonylphosphonate]", "IC50": "> 500"}
{"smiles": "CC(C)OC(=O)P(=O)(O)O", "note": "[disodium isopropoxycarbonylphosphonate]", "IC50": "> 500"}
{"smiles": "COP(=O)(O)C(=O)O", "note": "[disodium methoxy(oxido)phosphinecarboxylate oxide]", "IC50": "> 500"}
{"smiles": "O=C(O)P(=O)(O)Oc1ccccc1", "note": "[disodium oxido(phenoxy)phosphinecarboxylate oxide]", "IC50": 79}
{"smiles": "O=C(Oc1ccccc1)P(=O)(O)O", "note": "[disodium phenoxycarbonylphosphonate]", "IC50": "> 500"}
{"smiles": "COP(=O)(OC)C(=O)OC(C)C", "note": "[isopropyl dimethoxyphosphinecarboxylate oxide]", "IC50": "> 500"}
{"smiles": "COC(=O)P(=O)(OC)OC12CC3CC(CC(C3)C1)C2", "note": "(stereo not given) [methyl (1-adamantyloxy)(methoxy)phosphinecarboxylate oxide]", "IC50": "> 500"}
{"smiles": "CCOP(=O)(Oc1ccc2c(c1)CCC2)C(=O)OC", "note": "(stereo not given) [methyl (2,3-dihydro-1H-inden-5-yloxy)(ethoxy)phosphinecarboxylate oxide]", "IC50": "> 500"}
{"smiles": "CCOP(=O)(Oc1c(C)cccc1C)C(=O)OC", "note": "(stereo not given) [methyl (2,6-dimethylphenoxy)(ethoxy)phosphinecarboxylate oxide]", "IC50": "> 500"}
{"smiles": "CCOP(=O)(Oc1ccc(C(C)=O)cc1)C(=O)OC", "note": "(stereo not given) [methyl (4-acetylphenoxy)(ethoxy)phosphinecarboxylate oxide]", "IC50": "> 500"}
{"smiles": "COC(=O)P(=O)(OC)Oc1ccc(C(C)=O)cc1", "note": "(stereo not given) [methyl (4-acetylphenoxy)(methoxy)phosphinecarboxylate oxide]", "IC50": "> 500"}
{"smiles": "CCCCOP(=O)(OCCCC)C(=O)OC", "note": "[methyl dibutoxyphosphinecarboxylate oxide]", "IC50": "> 500"}
{"smiles": "COC(=O)P(=O)(OC(C)C)OC(C)C", "note": "[methyl diisopropoxyphosphinecarboxylate oxide]", "IC50": "> 500"}
{"smiles": "CCOP(=O)(Oc1ccc(OC)cc1)C(=O)Oc1ccccc1", "note": "(stereo not given) [phenyl (4-methoxyphenoxy)(ethoxy)phosphinecarboxylate oxide]", "IC50": 97}
{"smiles": "Cc1ccc(OP(=O)(Oc2ccc(C)cc2)C(=O)Oc2ccccc2)cc1", "note": "[phenyl bis(4-methylphenoxy)phosphinecarboxylate oxide]", "IC50": 44}
{"smiles": "COP(=O)(OC)C(=O)Oc1ccccc1", "note": "[phenyl dimethoxyphosphinecarboxylate oxide]", "IC50": "> 500"}
{"smiles": "O=C(Oc1ccccc1)P(=O)(Oc1ccccc1)Oc1ccccc1", "note": "[phenyl diphenoxyphosphinecarboxylate oxide]", "IC50": 39}
{"smiles": "COC(=O)P(=O)(O)Oc1ccc2c(c1)CCC2", "note": "[sodium 2,3-dihydro-1H-inden-5-yl methoxycarbonylphosphonate]", "IC50": "> 500"}
{"smiles": "COC(=O)P(=O)(O)Oc1c(C)cccc1C", "note": "[sodium 2,6-dimethylphenyl methoxycarbonylphosphonate]", "IC50": "> 500"}
{"smiles": "Cc1ccc(OP(=O)(O)C(=O)Oc2ccccc2)cc1", "note": "[sodium 4-methylphenyl phenoxycarbonylphosphonate]", "IC50": 54}
{"smiles": "CCCCOP(=O)(O)C(=O)OC", "note": "[sodium butyl methoxycarbonylphosphonate]", "IC50": "> 500"}
{"smiles": "CCOP(=O)(O)C(=O)Oc1ccc(Cl)cc1", "note": "[sodium ethyl (4-chlorophenoxy)carbonylphosphonate]", "IC50": 500}
{"smiles": "CCOP(=O)(O)C(=O)Oc1ccc(OC)cc1", "note": "[sodium ethyl (4-methoxyphenoxy)carbonylphosphonate]", "IC50": 165}
{"smiles": "CCOC(=O)P(=O)(O)OCC", "note": "[sodium ethyl ethoxycarbonylphosphonate]", "IC50": "> 500"}
{"smiles": "COP(=O)(O)C(=O)OCc1ccccc1", "note": "[sodium methyl (benzyloxy)carbonylphosphonate]", "IC50": "> 500"}
{"smiles": "COP(=O)(O)C(=O)Oc1ccccc1", "note": "[sodium methyl phenoxycarbonylphosphonate]", "IC50": "> 500"}
{"smiles": "CCOC(=O)P(=O)(O)Oc1ccccc1", "note": "[sodium phenyl ethoxycarbonylphosphonate]", "IC50": "> 500"}
{"smiles": "O=C(Oc1ccccc1)P(=O)(O)Oc1ccccc1", "note": "[sodium phenyl phenoxycarbonylphosphonate]", "IC50": 52}
